{
  "source": "paper PMC6138628",
  "about": "“Enhanced uptake of gH625 by blood brain barrier compared to liver in vivo: characterization of the mechanism by an in vitro model and implications for delivery” (Scientific Reports, 2018)",
  "key": {"[1]": {"assay": "Tryptophan quenching by acrylamide in buffer", "format": "physicochemical", "details": "no LUVs, peptide 4 µM, acrylamide up to 0.2 M, λex 295 nm, λem 340 nm", "procedure": "(§1) A solution containing 4 µM of gH625 in the absence or presence of LUVs at a peptide/lipid molar ratio of 1/200, was titrated with the water-soluble quencher acrylamide (4 M mother solution). The maximal concentration of acrylamide in the samples is 0.2 M. Fluorescence was measured with λex 295 nm and λem 340 nm[43]. The data were analysed with the Stern-Volmer equation[43], F0/F = 1 + Ksv [Q], where F0 and F represent the fluorescence intensities in the absence and the presence of the quencher (Q), respectively. The Ksv is the Stern-Volmer quenching constant, and is correlated to the accessibility of the tryptophan residue to acrylamide. […] Ksv is thus determined by the amount of non-lipid-associated free peptide as well as the peptide fraction located on the surface of the bilayer.\n(§2) The observed changes in the tryptophan emission upon binding to lipid vesicles indicate gH625 insertion into the hydrophobic region of the bilayers. We determined the accessibility of the tryptophan residues of membrane bound peptides towards acrylamide, a neutral, water-soluble quencher, which is unable to penetrate into the hydrophobic core of the lipid bilayer. In fact, tryptophan residues more deeply buried inside the membrane are less strongly quenched."}, "[2]": {"assay": "Tryptophan quenching by acrylamide", "format": "physicochemical", "details": "peptide 4 µM, peptide/lipid 1/200, acrylamide up to 0.2 M, λex 295 nm, λem 340 nm", "procedure": "as §1, §2"}, "[3]": {"assay": "Circular dichroism spectroscopy", "format": "physicochemical", "details": "CD, peptide 8 µM, P/L 0.08; for Helix content: [θ]222, according to Chakrabartty et al., lipid 100 µM, 5 mM phosphate buffer, room temperature", "procedure": "The samples were vortexed and lyophilized overnight.\nCD spectra were recorded at room temperature on a Jasco J-715 spectropolarimeter in a 0.1 cm quartz cell. The spectra are an average of 3 consecutive scans from 260 to 190 nm, recorded with a band width of 3 nm, a time constant of 16 s, and a scan rate of 10 nm/min. Spectra were recorded and corrected for the blank. Mean residue ellipticities (MRE) were calculated as MRE = Obsd/lcn (Obsd is the ellipticity measured in millidegrees, l is the path length of the cell in cm, c is the peptide concentration in mol/l, and n is the number of amino acid residues in the peptide). A solution of 8 µM of peptide with SUVs, was prepared as previously described. […] The percentage of helix was calculated from measurements of their mean residue ellipticity at 222 nm[44]. We used [ϑ]222 values of 0 and −40.000(1–2.5/n) deg cm^2 dmol^−1 per amino acid residue for 0% and 100% helicity; n is the number of amino acid residues. The ratio of the ellipticities at 222 and 208 nm were used to discriminate between monomeric and oligomeric states of helices. The experiment was performed before and after centrifugation to remove eventual precipitated peptides from solution."}, "brain / BBB": {"tested_on": "brain / BBB", "assay": "In vivo brain uptake, fluorescence microscopy of rat brain", "parameters": "species or system male Wistar rats", "details": "i.v., lower doses injected", "procedure": "In vivo studies were performed in male Wistar rats housed under a 12 hours light-dark cycle with free access to food and water. The animals were allocated in five groups, each consisting of three rats. Three animal groups received a single i.v. administration of NBD-gH625 at a concentration of 10 µg, 20 µg, and 40 µg/100 g bw, respectively. Control group received vehicle while another group received gH-625 (40 µg/100 g bw). Both NBD-gH625 and gH625 were dissolved in phosphate-buffered saline. After 3.5 hours from the i.v. administration, the animals were anesthetized with Zoletil® (40 mg/100 g) and euthanized by decapitation. This study was carried out in strict accordance with recommendations in the European Guide for the Care and Use of Laboratory Animals. Every effort was made to minimize animal pain and suffering. All animal protocols were approved by the Committee on the Ethics of Animal Experiments of the University of Napoli Federico II (Italy) and the Italian Minister of Health. (Protocol number 2012/000180).\nThe ex-vivo fluorescence microscopy analysis was performed to evaluate the distribution of NBD-gH625 on both sides of the BBB. In order to evaluate if there is a linear relationship between slides fluorescence integrated density and the amount of the peptide, a calibration curve was obtained. In particular, increasing amounts of NBD-gH625 (0–30 µM) were spotted on microscope slides and images at 515 nm were acquired (See the Results section) and analysed as described below. Brains were removed from animals, sectioned sagittally in thick slices, washed in PBS, mounted on coverslips, stained with DAPI (4′–6 Diamidino-2-Phenylindole, Dilactate) (Invitrogen, Carlsbad, CA, USA) and analysed under Axioskop fluorescence microscope (Zeiss). Images, at least 10 field of view (800 × 700 μm each) for each experimental class, were acquired using an AxioCam MRc5 (Zeiss) with DAPI filter (λex 350 nm; λem 461 nm) and a fluorescein isothiocyanate filter (λex 488 nm; λem 515 nm).\nTo evaluate the distribution of NBD-gH625 on both sides of the BBB, we estimated the fluorescence inside the blood vessels (without discriminating between the amount present in the blood and that present in the endothelial cells) and outside the blood vessels in 10 images for each experimental class. In detail, to assess the NBD-gH625 that reached without crossing the BBB, we selected blood vessels as the region of interest (ROI) (inbound) and evaluated the fluorescence intensity; then, on the non-zero thresholded images, an inversion of selected ROI was carried out to obtain the complementary ROI to calculate the amounts of NBD-gH625 which crossed the BBB (outbound).\nThe morphology of blood vessels was easily identified and outlined; the images were calibrated by ImageJ Rodbard function; integrated density values were calculated within the outlines exclusively, to be considered as inside fluorescence. Then, the thresholded and outlined images, to exclude both blood vessels and background values, were used to calculate the integrated density as outside fluorescence.\nTo evaluate the effect of concentration on the systemic delivery of NBD-gH625, a fluorescence microscopy analysis was performed as previously reported.\nBriefly, livers and brains were isolated and fixed for 24 hours in Bouin’s fixative (71% picric acid, 5% acetic acid, 24% formaldehyde) and embedded in paraffin wax (Carlo Erba, Milan, Italy). Tissue sections (10 μm of thickness) were incubated in 0.1% Sudan Black B dissolved in 70% ethanol for 20 minutes to reduce the tissues autofluorescence. The excess of Sudan Black B was removed by washing with Tris-buffered saline containing 0.02% Tween 20[30],[31]. Sections were stained with DAPI to counterstain nuclei, then mounted with a coverslip in glycerol/phosphate-buffered saline (1:1) and acquired using an AxioCam MRc5 with DAPI filter (λex 350 nm; λem 461 nm) and a fluorescein isothiocyanate filter (λex 488 nm; λem 515 nm). […]"}},
  "note": "Residues, ends and D or L forms follow the SMILES beside them.",
  "data": [
    {"molecule": "CC[C@H](C)[C@H](NC(=O)[C@H](CC(C)C)NC(=O)[C@H](C)NC(=O)[C@H](CC(N)=O)NC(=O)[C@H](Cc1ccc(O)cc1)NC(=O)[C@H](Cc1c[nH]cn1)NC(=O)[C@H](C)NC(=O)[C@H](Cc1c[nH]c2ccccc12)NC(=O)[C@H](CCCNC(=N)N)NC(=O)[C@@H](NC(=O)[C@H](CC(C)C)NC(=O)[C@@H](NC(=O)[C@H](CO)NC(=O)[C@H](C)NC(=O)[C@H](CC(C)C)NC(=O)CNC(=O)[C@@H](N)Cc1c[nH]cn1)[C@@H](C)O)[C@@H](C)O)C(=O)N[C@@H](CCCNC(=N)N)C(=O)N[C@@H](C)C(=O)N[C@@H](Cc1ccccc1)C(N)=O", "note": "[gH625] (H-HGLASTLTRWAHYNALIRAF-NH2)", "values": [
      {"measurement": "Stern-Volmer quenching constant (Ksv)", "setting": "[1]", "result": "10.21 ± 0.15", "unit": "M⁻¹"},
      {"measurement": "Stern-Volmer quenching constant (Ksv)", "setting": "[2]; BBB mimicking LUVs", "result": "2.05 ± 0.08", "unit": "M⁻¹"},
      {"measurement": "Stern-Volmer quenching constant (Ksv)", "setting": "[2]; liver mimicking LUVs", "result": "3.04 ± 0.06", "unit": "M⁻¹"},
      {"measurement": "Helix content", "setting": "[3]; BBB mimicking SUVs", "result": 58, "unit": "%"},
      {"measurement": "Helix content", "setting": "[3]; liver mimicking SUVs", "result": 40, "unit": "%"},
      {"measurement": "Ratio θ222/θ208 (monomeric < 0.8, oligomeric > 1.0)", "setting": "[3]; BBB mimicking SUVs", "result": "approximately 0.68"},
      {"measurement": "Ratio θ222/θ208 (monomeric < 0.8, oligomeric > 1.0)", "setting": "[3]; liver mimicking SUVs", "result": "~0.45"},
      {"measurement": "Percentage of delivered peptide, brain compared to liver", "setting": "brain / BBB", "result": "higher percentages of delivered peptide compared to the liver"}
    ]}
  ]
}
